# From PubChem BioAssay (NCI)
#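 Method: 48-hour compound exposure of cells in 96-well plates, five concentrations, linear interpolation of endpoints. Here, GI50 denotes the concentration required for 50% inhibition of growth. TGI denotes the concentration required for complete inhibition of growth.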
# Key:
# Test in all cases: inhibition of tumour cell growth, NCI panel, 48 h
# HCT-116 colon = system: HCT-116 colon
# OVCAR-4 ovarian = system: OVCAR-4 ovarian
# LOX IMVI melanoma = system: LOX IMVI melanoma
# SF-539 CNS = system: SF-539 CNS
# DU-145 prostate = system: DU-145 prostate
# NCI/ADR-RES ovarian = system: NCI/ADR-RES ovarian
# SF-295 CNS = system: SF-295 CNS
# HCC-2998 colon = system: HCC-2998 colon
# SNB-75 CNS = system: SNB-75 CNS
# SK-MEL-5 melanoma = system: SK-MEL-5 melanoma
SMILES,TGI (HCT-116 colon) [µM],TGI (OVCAR-4 ovarian) [µM],TGI (LOX IMVI melanoma) [µM],TGI (SF-539 CNS) [µM],TGI (DU-145 prostate) [µM],TGI (NCI/ADR-RES ovarian) [µM],TGI (SF-295 CNS) [µM],TGI (HCC-2998 colon) [µM],TGI (SNB-75 CNS) [µM],TGI (SK-MEL-5 melanoma) [µM],GI50 (HCT-116 colon) [µM],GI50 (OVCAR-4 ovarian) [µM],GI50 (LOX IMVI melanoma) [µM],GI50 (SF-539 CNS) [µM],GI50 (DU-145 prostate) [µM],GI50 (NCI/ADR-RES ovarian) [µM],GI50 (SF-295 CNS) [µM],GI50 (HCC-2998 colon) [µM],GI50 (SNB-75 CNS) [µM],GI50 (SK-MEL-5 melanoma) [µM]
Cc1cnc2c(c1)C(=O)N(c1ccc(Oc3ccccc3)cc1)S2(=O)=O,> 100,> 100,> 100,> 100,> 100,> 100,> 100,> 100,> 100,> 100,,,,,,,,,,
C[Si](C)(C)OC1(C#N)c2ccccc2CCCC12CCCC2 (centres undefined),> 100,> 100,49.6,> 100,> 100,> 100,> 100,44,> 100,56.2,,,,,,,,,,
Cc1ccc2sc3c(NCCCN)nc4ccccc4c3c(=O)c2c1,3.42,4.69,3.08,3.21,3.39,3.45,3.32,3.25,3.56,3.35,1.8,2.16,1.66,1.76,1.87,1.8,1.8,1.74,1.64,1.79
c1ccc2c(c1)nnn2C1CCCCO1 (centres undefined),> 100,> 100,> 100,> 100,> 100,> 100,> 100,> 100,> 100,> 100,,,,,,,,,,
CCOP(=O)(OCC)C(Nc1ccc(Cl)cc1)c1ccc(F)cc1 (centres undefined),44.5,> 100,29.1,49,91.4,87.3,44.8,59.1,84.8,32.8,,,,,,,,,,
N=c1ncn(C/C=C/c2ccccc2)c2nc[nH]c12,> 100,> 100,> 100,> 100,> 100,> 100,> 100,> 100,> 100,> 100,,,,,,,,,,
N=C1C=CC(=C(c2ccc(N)cc2)c2ccc(N)cc2)C=C1,13.9,52.4,15.4,13.1,17.7,49.3,21.4,18.6,11.5,9.5,,,,,,,,,,
CCOc1ccc2c(c1)C(/C(C(Cl)=C(Cl)Cl)=[N+](/[O-])OC(=O)c1ccccc1)=N2,> 100,> 100,> 100,> 100,> 100,> 100,> 100,> 100,> 100,> 100,,,,,,,,,,
NC(=Nc1ccccc1)N/N=C/c1c[nH]c2ccccc12,8.67,15,8.92,1.92,2.59,0.455,0.423,2.35,5.56,1.85,,,,,,,,,,
C1=CC2C(C3CN(c4ccccc4)N=C13)C1C3C4C=CC21C=CC43 (centres undefined),> 100,> 100,> 100,> 100,> 100,> 100,> 100,> 100,> 100,> 100,,,,,,,,,,
OCc1ccc2c(c1)CC1(Cc3ccccc3C1)C2,35.5,> 100,29.7,44.3,> 100,59.5,40.6,> 100,30.2,23.6,,,,,,,,,,
O=c1oc2ccccc2c(O)c1C(c1ccc(OCc2ccccc2)cc1)c1c(O)c2ccccc2oc1=O,> 100,> 100,> 100,> 100,> 100,> 100,> 100,96.9,65.6,60.1,,,,,,,,,,
COC(=O)C1=C(C)NC(C)=C(C(=O)OC)C1c1cccc(/[N+]([O-])=C/c2ccccc2)c1,30.4,30.2,> 100,> 100,> 100,58,> 100,> 100,> 100,> 100,,,,,,,,,,
Clc1nc2nc(N3CCNCC3)nc(N3CCCC3)c2[nH]1,29.7,35,29.4,33.8,30.9,> 100,38.2,29.5,36,28.8,,,,,,,,,,
CCC[N+](C)(C)CCCNC(=O)c1c(O)c2ccccc2[nH]c1=O,> 100,> 100,> 100,> 100,> 100,> 100,> 100,> 100,> 100,54.8,,,,,,,,,,
CC1(C)C2CC3C(C)(C2)C31c1cc(Cl)ccc1N (centres undefined),17.5,28.6,30.5,32,27,29.5,28.6,28.2,24.3,27.1,,,,,,,,,,
Cc1cn(C2CC(O)C(Cn3nncc3Cn3nc(Br)c(=O)[nH]c3=O)O2)c(=O)[nH]c1=O (centres undefined),> 100,> 100,> 100,> 100,> 100,> 100,> 100,> 100,,> 100,,,,,,,,,,
